Data: ChEMBL document CHEMBL1255475, “Mutant prevention concentrations of four carbapenems against gram-negative rods” (2010)
≈ marks a conversion by molar mass, not a printed value.

Key:
Escherichia coli [1] = experiment: Antibacterial activity against beta-lactamase-negative Escherichia coli E408 incubated up to 7 days by agar dilution method; assay type: functional; settings: E408, 168 h
Escherichia coli [2] = experiment: Antibacterial activity against beta-lactamase-negative Escherichia coli E425 incubated up to 7 days by agar dilution method; assay type: functional; settings: E425, 168 h
Escherichia coli [3] = experiment: Ratio of mutant prevention concentration to minimum Inhibitory concentration for beta-lactamase-negative Escherichia coli E344; assay type: functional
Escherichia coli [4] = experiment: Ratio of mutant prevention concentration to minimum Inhibitory concentration for beta-lactamase-negative Escherichia coli E346; assay type: functional
Escherichia coli [5] = experiment: Ratio of mutant prevention concentration to minimum Inhibitory concentration for beta-lactamase-negative Escherichia coli E350; assay type: functional
Escherichia coli [6] = experiment: Ratio of mutant prevention concentration to minimum Inhibitory concentration for beta-lactamase-negative Escherichia coli E408; assay type: functional
Escherichia coli [7] = experiment: Ratio of mutant prevention concentration to minimum Inhibitory concentration for beta-lactamase-negative Escherichia coli E409; assay type: functional
Escherichia coli [8] = experiment: Ratio of mutant prevention concentration to minimum Inhibitory concentration for beta-lactamase-positive ESBL-positive Escherichia coli E458; assay type: functional
Escherichia coli [9] = experiment: Ratio of mutant prevention concentration to minimum Inhibitory concentration for beta-lactamase-positive ESBL-negative Escherichia coli E415; assay type: functional
Escherichia coli [10] = experiment: Ratio of mutant prevention concentration to minimum Inhibitory concentration for beta-lactamase-positive ESBL-negative Escherichia coli E437; assay type: functional
Escherichia coli [11] = experiment: Ratio of mutant prevention concentration to minimum Inhibitory concentration for beta-lactamase-positive ESBL-positive Escherichia coli E452; assay type: functional
Escherichia coli [12] = experiment: Ratio of mutant prevention concentration to minimum Inhibitory concentration for beta-lactamase-positive ESBL-negative Escherichia coli E430; assay type: functional
Escherichia coli [13] = experiment: Ratio of mutant prevention concentration to minimum Inhibitory concentration for beta-lactamase-positive ESBL-positive Escherichia coli E459; assay type: functional
Escherichia coli [14] = experiment: Ratio of mutant prevention concentration to minimum Inhibitory concentration for beta-lactamase-positive ESBL-positive Escherichia coli E451; assay type: functional
Escherichia coli [15] = experiment: Ratio of mutant prevention concentration to minimum Inhibitory concentration for beta-lactamase-positive ESBL-positive Escherichia coli E465; assay type: functional
Escherichia coli [16] = experiment: Ratio of mutant prevention concentration to minimum Inhibitory concentration for beta-lactamase-positive ESBL-negative Escherichia coli E483; assay type: functional
Klebsiella pneumoniae [17] = experiment: Ratio of mutant prevention concentration to minimum Inhibitory concentration for beta-lactamase-negative Klebsiella pneumoniae E358; assay type: functional
Klebsiella pneumoniae [18] = experiment: Ratio of mutant prevention concentration to minimum Inhibitory concentration for beta-lactamase-negative Klebsiella pneumoniae E359; assay type: functional
Klebsiella pneumoniae [19] = experiment: Ratio of mutant prevention concentration to minimum Inhibitory concentration for beta-lactamase-negative Klebsiella pneumoniae E360; assay type: functional
Klebsiella pneumoniae [20] = experiment: Ratio of mutant prevention concentration to minimum Inhibitory concentration for beta-lactamase-negative Klebsiella pneumoniae E362; assay type: functional
Klebsiella pneumoniae [21] = experiment: Ratio of mutant prevention concentration to minimum Inhibitory concentration for beta-lactamase-positive ESBL-negative Klebsiella pneumoniae E509; assay type: functional
Klebsiella pneumoniae [22] = experiment: Ratio of mutant prevention concentration to minimum Inhibitory concentration for beta-lactamase-positive ESBL-negative Klebsiella pneumoniae E477; assay type: functional
Klebsiella pneumoniae [23] = experiment: Ratio of mutant prevention concentration to minimum Inhibitory concentration for beta-lactamase-negative Klebsiella pneumoniae E417; assay type: functional
Klebsiella pneumoniae [24] = experiment: Ratio of mutant prevention concentration to minimum Inhibitory concentration for beta-lactamase-positive ESBL-positive Klebsiella pneumoniae E453; assay type: functional
Klebsiella pneumoniae [25] = experiment: Ratio of mutant prevention concentration to minimum Inhibitory concentration for beta-lactamase-positive ESBL-positive Klebsiella pneumoniae E457; assay type: functional
Klebsiella pneumoniae [26] = experiment: Ratio of mutant prevention concentration to minimum Inhibitory concentration for beta-lactamase-positive ESBL-negative Klebsiella pneumoniae E507; assay type: functional
Klebsiella pneumoniae [27] = experiment: Ratio of mutant prevention concentration to minimum Inhibitory concentration for beta-lactamase-positive ESBL-negative Klebsiella pneumoniae E511; assay type: functional
Pseudomonas aeruginosa [28] = experiment: Antibacterial activity against Pseudomonas aeruginosa P332 incubated up to 7 days by agar dilution method; assay type: functional; settings: P332, 168 h
Pseudomonas aeruginosa [29] = experiment: Antibacterial activity against Pseudomonas aeruginosa P356 incubated up to 7 days by agar dilution method; assay type: functional; settings: P356, 168 h
Pseudomonas aeruginosa [30] = experiment: Antibacterial activity against Pseudomonas aeruginosa P369 incubated up to 7 days by agar dilution method; assay type: functional; settings: P369, 168 h
Pseudomonas aeruginosa [31] = experiment: Antibacterial activity against Pseudomonas aeruginosa P319 incubated up to 7 days by agar dilution method; assay type: functional; settings: P319, 168 h
Pseudomonas aeruginosa [32] = experiment: Antibacterial activity against Pseudomonas aeruginosa P337 incubated up to 7 days by agar dilution method; assay type: functional; settings: P337, 168 h
Pseudomonas aeruginosa [33] = experiment: Antibacterial activity against Pseudomonas aeruginosa P353 incubated up to 7 days by agar dilution method; assay type: functional; settings: P353, 168 h
Acinetobacter baumannii [34] = experiment: Antibacterial activity against Acinetobacter baumannii A864 assessed as mutant prevention concentration after overnight incubation; assay type: functional
Acinetobacter baumannii [35] = experiment: Antibacterial activity against Acinetobacter baumannii A865 assessed as mutant prevention concentration after overnight incubation; assay type: functional
Acinetobacter baumannii [36] = experiment: Antibacterial activity against Acinetobacter baumannii A867 assessed as mutant prevention concentration after overnight incubation; assay type: functional
Acinetobacter baumannii [37] = experiment: Antibacterial activity against Acinetobacter baumannii A892 assessed as mutant prevention concentration after overnight incubation; assay type: functional
Pseudomonas aeruginosa [38] = experiment: Antibacterial activity against Pseudomonas aeruginosa P349 incubated up to 7 days by agar dilution method; assay type: functional; settings: P349, 168 h
Pseudomonas aeruginosa [39] = experiment: Antibacterial activity against Pseudomonas aeruginosa P358 incubated up to 7 days by agar dilution method; assay type: functional; settings: P358, 168 h
Acinetobacter baumannii [40] = experiment: Antibacterial activity against Acinetobacter baumannii A885 incubated up to 7 days by agar dilution method; assay type: functional; settings: A885, 168 h
Acinetobacter baumannii [41] = experiment: Antibacterial activity against Acinetobacter baumannii A903 incubated up to 7 days by agar dilution method; assay type: functional; settings: A903, 168 h
Acinetobacter baumannii [42] = experiment: Antibacterial activity against Acinetobacter baumannii A865 incubated for 24 h by agar dilution method; settings: A865, 24 h
Acinetobacter baumannii [43] = experiment: Antibacterial activity against Acinetobacter baumannii A851 incubated for 24 h by agar dilution method; settings: A851, 24 h
Acinetobacter baumannii [44] = experiment: Antibacterial activity against Acinetobacter baumannii A912 incubated for 24 h by agar dilution method; settings: A912, 24 h
Acinetobacter baumannii [45] = experiment: Antibacterial activity against Acinetobacter baumannii A892 incubated for 24 h by agar dilution method; settings: A892, 24 h
Acinetobacter baumannii [46] = experiment: Antibacterial activity against Acinetobacter baumannii A849 incubated for 24 h by agar dilution method; settings: A849, 24 h
Acinetobacter baumannii [47] = experiment: Antibacterial activity against Acinetobacter baumannii A928 incubated for 24 h by agar dilution method; settings: A928, 24 h
Acinetobacter baumannii [48] = experiment: Antibacterial activity against Acinetobacter baumannii A864 incubated for 24 hrs by agar dilution method; settings: A864, 24 h
Acinetobacter baumannii [49] = experiment: Antibacterial activity against Acinetobacter baumannii A931 incubated for 24 hrs by agar dilution method; settings: A931, 24 h

## C[C@@H](O)[C@H]1C(=O)N2C(C(=O)O)=C(S[C@@H]3CN[C@H](C(=O)Nc4cccc(C(=O)O)c4)C3)[C@H](C)[C@H]12
Escherichia coli [1]
  MIC: 0.016 µg/mL (≈ 0.0336 µM)
Escherichia coli [2]
  MIC: 0.008 µg/mL (≈ 0.0168 µM)
Escherichia coli [3]
  Ratio: 4
Escherichia coli [4]
  Ratio: 4
Escherichia coli [5]
  Ratio: 2
Escherichia coli [6]
  Ratio: 4
Escherichia coli [7]
  Ratio: 8
Escherichia coli [8]
  Ratio: 16
Escherichia coli [9]
  Ratio: 4
Escherichia coli [10]
  Ratio: 2
Escherichia coli [11]
  Ratio: 8
Escherichia coli [12]
  Ratio: >8
Escherichia coli [13]
  Ratio: 2
Escherichia coli [14]
  Ratio: 16
Escherichia coli [15]
  Ratio: >16
Escherichia coli [16]
  Ratio: 16
Klebsiella pneumoniae [17]
  Ratio: 4
Klebsiella pneumoniae [18]
  Ratio: 2
Klebsiella pneumoniae [19]
  Ratio: 4
Klebsiella pneumoniae [20]
  Ratio: 4
Klebsiella pneumoniae [21]
  Ratio: 4
Klebsiella pneumoniae [22]
  Ratio: 4
Klebsiella pneumoniae [23]
  Ratio: 2
Klebsiella pneumoniae [24]
  Ratio: 2
Klebsiella pneumoniae [25]
  Ratio: 4
Klebsiella pneumoniae [26]
  Ratio: 8
Klebsiella pneumoniae [27]
  Ratio: 8

## C[C@@H](O)[C@H]1C(=O)N2C(C(=O)O)=C(S[C@@H]3CN[C@H](CNS(N)(=O)=O)C3)[C@H](C)[C@H]12 [DORIPENEM]
Pseudomonas aeruginosa [28]
  MIC: 0.25 µg/mL (≈ 0.595 µM)
Pseudomonas aeruginosa [29]
  MIC: 0.25 µg/mL (≈ 0.595 µM)
Pseudomonas aeruginosa [30]
  MIC: 0.25 µg/mL (≈ 0.595 µM)
Pseudomonas aeruginosa [31]
  MIC: 2 µg/mL (≈ 4.76 µM)
Pseudomonas aeruginosa [32]
  MIC: 1 µg/mL (≈ 2.38 µM)
Pseudomonas aeruginosa [33]
  MIC: 0.5 µg/mL (≈ 1.19 µM)
Escherichia coli [1]
  MIC: 0.03 µg/mL (≈ 0.0713 µM)
Escherichia coli [2]
  MIC: 0.03 µg/mL (≈ 0.0713 µM)
Escherichia coli [3]
  Ratio: 2
Escherichia coli [4]
  Ratio: 2
Escherichia coli [5]
  Ratio: 2
Escherichia coli [6]
  Ratio: 2
Acinetobacter baumannii [34]
  MPC: 64 µg/mL
Acinetobacter baumannii [35]
  MPC: 64 µg/mL
Acinetobacter baumannii [36]
  MPC: 64 µg/mL
Acinetobacter baumannii [37]
  MPC: 64 µg/mL
Escherichia coli [7]
  Ratio: 4
Escherichia coli [8]
  Ratio: 2
Escherichia coli [9]
  Ratio: 2
Escherichia coli [10]
  Ratio: 2
Escherichia coli [11]
  Ratio: 4
Escherichia coli [12]
  Ratio: 4
Escherichia coli [13]
  Ratio: 4
Escherichia coli [14]
  Ratio: 2
Escherichia coli [15]
  Ratio: 16
Escherichia coli [16]
  Ratio: 8
Klebsiella pneumoniae [17]
  Ratio: 2
Klebsiella pneumoniae [18]
  Ratio: 2
Klebsiella pneumoniae [19]
  Ratio: 2
Klebsiella pneumoniae [20]
  Ratio: 2
Klebsiella pneumoniae [21]
  Ratio: >16
Klebsiella pneumoniae [22]
  Ratio: >16
Klebsiella pneumoniae [23]
  Ratio: 2
Klebsiella pneumoniae [24]
  Ratio: 2
Klebsiella pneumoniae [25]
  Ratio: 2
Klebsiella pneumoniae [26]
  Ratio: >16
Klebsiella pneumoniae [27]
  Ratio: >16
Pseudomonas aeruginosa [38]
  MIC: 0.5 µg/mL (≈ 1.19 µM)
Pseudomonas aeruginosa [39]
  MIC: 8 µg/mL (≈ 19 µM)
Acinetobacter baumannii [40]
  MIC: 4 µg/mL (≈ 9.51 µM)
Acinetobacter baumannii [41]
  MIC: 1 µg/mL (≈ 2.38 µM)
Acinetobacter baumannii [42]
  MIC: 8 µg/mL (≈ 19 µM)
Acinetobacter baumannii [43]
  MIC: 4 µg/mL (≈ 9.51 µM)
Acinetobacter baumannii [44]
  MIC: 4 µg/mL (≈ 9.51 µM)
Acinetobacter baumannii [45]
  MIC: 4 µg/mL (≈ 9.51 µM)
Acinetobacter baumannii [46]
  MIC: 4 µg/mL (≈ 9.51 µM)
Acinetobacter baumannii [47]
  MIC: 0.5 µg/mL (≈ 1.19 µM)
Acinetobacter baumannii [48]
  MIC: 8 µg/mL (≈ 19 µM)
Acinetobacter baumannii [49]
  MIC: 1 µg/mL (≈ 2.38 µM)

## C[C@@H](O)[C@H]1C(=O)N2C(C(=O)O)=C(SCCNC=N)C[C@H]12 [IMIPENEM ANHYDROUS]
Acinetobacter baumannii [34]
  MPC: 64 µg/mL
Acinetobacter baumannii [35]
  MPC: 32 µg/mL
Acinetobacter baumannii [36]
  MPC: 64 µg/mL
Acinetobacter baumannii [37]
  MPC: 64 µg/mL

## C[C@@H](O)[C@H]1C(=O)N2C(C(=O)O)=C(S[C@@H]3CN[C@H](C(=O)N(C)C)C3)[C@H](C)[C@H]12 [MEROPENEM]
Pseudomonas aeruginosa [28]
  MIC: 1 µg/mL (≈ 2.61 µM)
Pseudomonas aeruginosa [29]
  MIC: 0.5 µg/mL (≈ 1.3 µM)
Pseudomonas aeruginosa [30]
  MIC: 0.5 µg/mL (≈ 1.3 µM)
Pseudomonas aeruginosa [31]
  MIC: 2 µg/mL (≈ 5.22 µM)
Pseudomonas aeruginosa [32]
  MIC: 1 µg/mL (≈ 2.61 µM)
Pseudomonas aeruginosa [33]
  MIC: 2 µg/mL (≈ 5.22 µM)
Pseudomonas aeruginosa [38]
  MIC: 1 µg/mL (≈ 2.61 µM)
Pseudomonas aeruginosa [39]
  MIC: 8 µg/mL (≈ 20.9 µM)
Acinetobacter baumannii [40]
  MIC: 2 µg/mL (≈ 5.22 µM)
Acinetobacter baumannii [41]
  MIC: 2 µg/mL (≈ 5.22 µM)
Acinetobacter baumannii [42]
  MIC: 8 µg/mL (≈ 20.9 µM)
Acinetobacter baumannii [43]
  MIC: 4 µg/mL (≈ 10.4 µM)
Acinetobacter baumannii [44]
  MIC: 2 µg/mL (≈ 5.22 µM)
Acinetobacter baumannii [45]
  MIC: 8 µg/mL (≈ 20.9 µM)
Acinetobacter baumannii [46]
  MIC: 8 µg/mL (≈ 20.9 µM)
Acinetobacter baumannii [47]
  MIC: 1 µg/mL (≈ 2.61 µM)
Acinetobacter baumannii [48]
  MIC: 8 µg/mL (≈ 20.9 µM)
Acinetobacter baumannii [49]
  MIC: 1 µg/mL (≈ 2.61 µM)
